Laboratory results published in publication PMC5814754, “Quantitative, Wide-Spectrum Kinase Profiling in Live Cells for Assessing the Effect of Cellular ATP on Target Engagement” (Cell Chemical Biology, 2018).
Read-outs that look alike come from different tables or passages of the source.

What was measured:
[1] = target: full-length kinase/Nluc fusion proteins (Homo sapiens, UniProt Q16539); assay: Apparent affinity (EC50) of energy transfer probes by titration onto live HEK293 cells expressing kinase/Nluc fusions (Table S1); type: binding; details: MAPK14, Nluc C; read-out: Probe EC50
[2] = target: full-length kinase/Nluc fusion proteins (Homo sapiens, UniProt P06241); assay: as above; type: binding; details: FYN, Nluc C; read-out: Probe EC50
[3] = target: full-length kinase/Nluc fusion proteins (Homo sapiens, UniProt P42681); assay: as above; type: binding; details: TXK (NP_003319), Nluc orientation C; read-out: Probe EC50
[4] = target: full-length kinase/Nluc fusion proteins (Homo sapiens, UniProt P41240); assay: as above; type: binding; details: CSK, Nluc C; read-out: Probe EC50
[5] = target: full-length kinase/Nluc fusion proteins (Homo sapiens, UniProt P54764); assay: as above; type: binding; details: EPHA4, Nluc C; read-out: Probe EC50
[6] = target: full-length kinase/Nluc fusion proteins (Homo sapiens, UniProt P10721); assay: as above; type: binding; details: KIT, Nluc C; read-out: Probe EC50
[7] = target: full-length kinase/Nluc fusion proteins (Homo sapiens, UniProt P42680); assay: as above; type: binding; details: TEC (NP_003206), Nluc orientation N; read-out: Probe EC50
[8] = target: full-length kinase/Nluc fusion proteins (Homo sapiens, UniProt P42684); assay: as above; type: binding; details: ABL2, Nluc N; read-out: Probe EC50
[9] = target: full-length kinase/Nluc fusion proteins (Homo sapiens, UniProt P29323); assay: as above; type: binding; details: EPHB2, Nluc C; read-out: Probe EC50
[10] = target: full-length kinase/Nluc fusion proteins (Homo sapiens, UniProt O75676); assay: as above; type: binding; details: RPS6KA4 (NP_001287731), Nluc orientation N; read-out: Probe EC50
[11] = target: full-length kinase/Nluc fusion proteins (Homo sapiens, UniProt P19784); assay: as above; type: binding; details: CSNK2A2, Nluc C; read-out: Probe EC50
[12] = target: full-length kinase/Nluc fusion proteins (Homo sapiens, UniProt P49760); assay: as above; type: binding; details: CLK2, Nluc C; read-out: Probe EC50
[13] = target: full-length kinase/Nluc fusion proteins (Homo sapiens, UniProt Q96PY6); assay: as above; type: binding; details: NEK1, Nluc N; read-out: Probe EC50
[14] = target: full-length kinase/Nluc fusion proteins (Homo sapiens, UniProt Q14289); assay: as above; type: binding; details: PTK2B, Nluc C; read-out: Probe EC50
[15] = target: full-length kinase/Nluc fusion proteins (Homo sapiens, UniProt P51812); assay: as above; type: binding; details: RPS6KA3 (NP_004577), Nluc orientation N; read-out: Probe EC50
[16] = target: full-length kinase/Nluc fusion proteins (Homo sapiens, UniProt Q9Y6R4); assay: as above; type: binding; details: MAP3K4, Nluc C; read-out: Probe EC50
[17] = tested on: INSR; details: read-out: Crizotinib IC50 Biochemical; ref Cui et al., 2011; cited from earlier work
[18] = tested on: TRKB; details: read-out: Crizotinib IC50 Biochemical; ref Cui et al., 2011; cited from earlier work
[19] = tested on: AXL; details: read-out: Crizotinib IC50 Biochemical; ref Cui et al., 2011; cited from earlier work
[20] = tested on: LCK; details: read-out: Crizotinib IC50 Biochemical; ref Cui et al., 2011; cited from earlier work
[21] = tested on: ABL; details: read-out: Crizotinib IC50 Biochemical; ref Cui et al., 2011; cited from earlier work
[22] = tested on: TRKB; details: read-out: Live Cell IC50 Phospho Elisa; ref Cui et al., 2011; cited from earlier work
[23] = target: 178 full-length kinases (Homo sapiens, UniProt Q00535); assay: NanoBRET single-dose fractional occupancy profiling of kinase/Nluc library in live HEK293 cells (Table S1); type: binding; set-up: receptor occupancy: dose or concentration left out as unconfirmed; Occupancy, % Replicate 1 / Occupancy, % Replicate 2: unit of the concentration uncertain; details: CDK5, Nluc C, probe 5 at 1 (unit uncertain)
[24] = target: 178 full-length kinases (Homo sapiens, UniProt P17612); assay: as above; type: binding; set-up: receptor occupancy: dose or concentration left out as unconfirmed; Occupancy, % Replicate 1 / Occupancy, % Replicate 2: unit of the concentration uncertain; details: PRKACA, Nluc C, probe 5 at 1 (unit uncertain)
[25] = target: 178 full-length kinases (Homo sapiens, UniProt P57059); assay: as above; type: binding; set-up: receptor occupancy: dose or concentration left out as unconfirmed; Occupancy, % Replicate 1 / Occupancy, % Replicate 2: unit of the concentration uncertain; details: SIK1 (NP_001307572), Nluc orientation N, probe 6 at 0.1 (unit uncertain)
[26] = target: 178 full-length kinases (Homo sapiens, UniProt P07333); assay: as above; type: binding; set-up: receptor occupancy: dose or concentration left out as unconfirmed; Occupancy, % Replicate 1 / Occupancy, % Replicate 2: unit of the concentration uncertain; details: CSF1R, Nluc C, probe 6
[27] = target: 178 full-length kinases (Homo sapiens, UniProt P51817); assay: as above; type: binding; set-up: receptor occupancy: dose or concentration left out as unconfirmed; Occupancy, % Replicate 1 / Occupancy, % Replicate 2: unit of the concentration uncertain; details: PRKX, Nluc C, probe 5 at 1 (unit uncertain)
[28] = target: 178 full-length kinases (Homo sapiens, UniProt Q96PY6); assay: as above; type: binding; set-up: receptor occupancy: dose or concentration left out as unconfirmed; Occupancy, % Replicate 1 / Occupancy, % Replicate 2: unit of the concentration uncertain; details: NEK1, Nluc N, probe 5 at 1 (unit uncertain)
[29] = tested on: LCK; details: read-out: cellular potency (phospho-ELISA), ref Cui et al., 2011; cited from earlier work
[30] = tested on: MET; details: read-out: Live Cell IC50 Phospho Elisa; ref Cui et al., 2011; cited from earlier work

Sequence of 178 full-length kinases (Homo sapiens, UniProt P57059) (P57059 whole entry): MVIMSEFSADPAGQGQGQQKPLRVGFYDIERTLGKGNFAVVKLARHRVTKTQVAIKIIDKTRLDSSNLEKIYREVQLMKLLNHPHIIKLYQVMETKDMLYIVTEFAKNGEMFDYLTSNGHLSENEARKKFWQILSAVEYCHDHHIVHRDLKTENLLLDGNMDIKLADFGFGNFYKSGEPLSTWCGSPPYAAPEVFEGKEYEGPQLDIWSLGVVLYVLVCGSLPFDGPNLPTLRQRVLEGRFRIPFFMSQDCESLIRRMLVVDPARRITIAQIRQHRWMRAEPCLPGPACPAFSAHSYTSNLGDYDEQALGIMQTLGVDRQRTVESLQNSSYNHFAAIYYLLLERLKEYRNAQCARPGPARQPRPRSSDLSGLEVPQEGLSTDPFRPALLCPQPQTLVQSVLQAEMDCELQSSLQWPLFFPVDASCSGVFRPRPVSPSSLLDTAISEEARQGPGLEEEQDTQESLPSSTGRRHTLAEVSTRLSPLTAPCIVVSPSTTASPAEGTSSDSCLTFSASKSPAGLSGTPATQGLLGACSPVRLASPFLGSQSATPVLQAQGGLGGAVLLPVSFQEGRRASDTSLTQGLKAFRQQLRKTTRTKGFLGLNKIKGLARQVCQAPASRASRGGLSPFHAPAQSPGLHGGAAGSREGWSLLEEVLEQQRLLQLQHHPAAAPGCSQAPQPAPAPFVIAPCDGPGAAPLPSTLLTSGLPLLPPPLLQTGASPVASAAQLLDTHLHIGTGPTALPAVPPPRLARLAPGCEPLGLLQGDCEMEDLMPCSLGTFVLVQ
Sequence of 178 full-length kinases (Homo sapiens, UniProt P51817) (P51817 whole entry): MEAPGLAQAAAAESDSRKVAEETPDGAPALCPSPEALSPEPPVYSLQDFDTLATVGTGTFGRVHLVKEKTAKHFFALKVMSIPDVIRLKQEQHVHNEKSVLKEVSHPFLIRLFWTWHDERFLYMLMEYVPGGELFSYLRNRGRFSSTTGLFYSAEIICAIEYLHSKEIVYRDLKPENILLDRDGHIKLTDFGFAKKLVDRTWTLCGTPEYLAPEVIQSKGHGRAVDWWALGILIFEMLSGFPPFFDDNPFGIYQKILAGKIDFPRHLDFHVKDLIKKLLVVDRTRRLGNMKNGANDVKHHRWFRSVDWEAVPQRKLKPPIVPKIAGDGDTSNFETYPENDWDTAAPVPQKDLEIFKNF
Sequence of 178 full-length kinases (Homo sapiens, UniProt Q00535) (Q00535 whole entry): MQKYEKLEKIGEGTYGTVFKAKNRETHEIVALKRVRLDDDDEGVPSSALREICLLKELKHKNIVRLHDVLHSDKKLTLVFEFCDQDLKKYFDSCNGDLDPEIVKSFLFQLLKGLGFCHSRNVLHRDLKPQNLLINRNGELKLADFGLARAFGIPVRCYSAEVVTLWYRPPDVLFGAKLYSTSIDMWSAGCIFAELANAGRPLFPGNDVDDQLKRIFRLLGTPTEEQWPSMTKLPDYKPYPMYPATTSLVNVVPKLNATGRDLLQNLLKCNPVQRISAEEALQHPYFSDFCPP
Sequence of full-length kinase/Nluc fusion proteins (Homo sapiens, UniProt Q96PY6) (Q96PY6 whole entry, the tested form may be a part): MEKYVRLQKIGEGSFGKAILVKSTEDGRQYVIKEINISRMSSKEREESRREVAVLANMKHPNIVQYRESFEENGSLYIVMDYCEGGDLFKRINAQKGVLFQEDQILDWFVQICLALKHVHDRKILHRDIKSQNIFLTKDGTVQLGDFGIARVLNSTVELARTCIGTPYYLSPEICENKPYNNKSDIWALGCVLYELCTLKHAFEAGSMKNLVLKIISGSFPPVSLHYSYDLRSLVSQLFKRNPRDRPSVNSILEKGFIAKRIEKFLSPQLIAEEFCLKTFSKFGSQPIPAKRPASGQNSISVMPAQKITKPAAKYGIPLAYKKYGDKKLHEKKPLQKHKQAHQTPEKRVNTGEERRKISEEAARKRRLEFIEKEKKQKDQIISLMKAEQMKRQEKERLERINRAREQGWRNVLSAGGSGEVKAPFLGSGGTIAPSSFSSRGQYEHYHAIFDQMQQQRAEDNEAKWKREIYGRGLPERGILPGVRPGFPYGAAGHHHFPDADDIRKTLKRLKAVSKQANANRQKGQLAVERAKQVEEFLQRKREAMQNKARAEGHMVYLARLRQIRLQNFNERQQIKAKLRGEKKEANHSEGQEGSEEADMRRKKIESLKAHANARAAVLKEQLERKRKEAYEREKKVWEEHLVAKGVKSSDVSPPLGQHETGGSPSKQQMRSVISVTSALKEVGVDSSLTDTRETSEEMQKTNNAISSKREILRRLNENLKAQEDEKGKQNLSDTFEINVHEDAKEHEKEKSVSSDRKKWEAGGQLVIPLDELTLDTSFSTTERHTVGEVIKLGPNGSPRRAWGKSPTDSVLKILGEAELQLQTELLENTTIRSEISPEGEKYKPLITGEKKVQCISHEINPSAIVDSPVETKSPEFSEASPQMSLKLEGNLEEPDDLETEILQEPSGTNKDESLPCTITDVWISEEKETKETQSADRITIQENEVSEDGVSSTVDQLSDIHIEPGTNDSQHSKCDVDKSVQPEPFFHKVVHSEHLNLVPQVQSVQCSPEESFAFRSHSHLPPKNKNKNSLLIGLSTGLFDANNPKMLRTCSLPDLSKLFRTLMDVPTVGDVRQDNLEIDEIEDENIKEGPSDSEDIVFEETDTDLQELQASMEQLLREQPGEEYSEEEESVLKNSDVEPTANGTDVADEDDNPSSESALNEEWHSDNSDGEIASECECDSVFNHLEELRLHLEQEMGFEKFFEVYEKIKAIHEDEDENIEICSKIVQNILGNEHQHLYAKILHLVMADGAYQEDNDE
Sequence of 178 full-length kinases (Homo sapiens, UniProt Q96PY6) (Q96PY6 whole entry): as the sequence (Q96PY6 whole entry, the tested form may be a part) above
Sequence of full-length kinase/Nluc fusion proteins (Homo sapiens, UniProt P19784) (P19784 whole entry, the tested form may be a part): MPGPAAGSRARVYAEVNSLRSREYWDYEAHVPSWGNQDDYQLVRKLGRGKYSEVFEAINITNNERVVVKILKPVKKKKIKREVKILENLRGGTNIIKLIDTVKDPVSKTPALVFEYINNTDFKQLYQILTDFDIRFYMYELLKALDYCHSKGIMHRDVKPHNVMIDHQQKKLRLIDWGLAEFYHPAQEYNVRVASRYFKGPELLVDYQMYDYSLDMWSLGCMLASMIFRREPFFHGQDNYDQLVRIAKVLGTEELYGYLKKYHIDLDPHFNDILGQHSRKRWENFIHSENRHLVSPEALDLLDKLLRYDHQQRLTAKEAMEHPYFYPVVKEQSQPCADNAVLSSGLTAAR
Sequence of full-length kinase/Nluc fusion proteins (Homo sapiens, UniProt P51812) (P51812 whole entry, the tested form may be a part): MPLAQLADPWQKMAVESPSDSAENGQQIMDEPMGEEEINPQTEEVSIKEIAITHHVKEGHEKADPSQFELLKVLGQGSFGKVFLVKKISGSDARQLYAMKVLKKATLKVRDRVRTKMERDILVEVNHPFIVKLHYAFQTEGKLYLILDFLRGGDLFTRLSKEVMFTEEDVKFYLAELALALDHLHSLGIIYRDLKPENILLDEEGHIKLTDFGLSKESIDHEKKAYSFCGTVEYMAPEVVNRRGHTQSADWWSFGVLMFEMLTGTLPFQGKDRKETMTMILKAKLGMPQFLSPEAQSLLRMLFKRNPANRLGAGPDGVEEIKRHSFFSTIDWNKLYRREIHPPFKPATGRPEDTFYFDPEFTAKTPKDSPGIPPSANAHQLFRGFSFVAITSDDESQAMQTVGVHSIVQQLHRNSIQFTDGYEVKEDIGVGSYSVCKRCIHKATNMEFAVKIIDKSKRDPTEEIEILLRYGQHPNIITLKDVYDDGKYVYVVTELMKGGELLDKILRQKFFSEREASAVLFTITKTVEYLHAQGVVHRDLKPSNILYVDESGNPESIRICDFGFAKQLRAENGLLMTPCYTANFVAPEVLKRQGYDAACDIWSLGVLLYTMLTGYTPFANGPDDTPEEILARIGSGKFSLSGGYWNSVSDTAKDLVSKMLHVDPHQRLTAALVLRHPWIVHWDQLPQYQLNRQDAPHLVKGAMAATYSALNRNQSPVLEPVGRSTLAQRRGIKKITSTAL
Sequence of full-length kinase/Nluc fusion proteins (Homo sapiens, UniProt P49760) (P49760 whole entry, the tested form may be a part): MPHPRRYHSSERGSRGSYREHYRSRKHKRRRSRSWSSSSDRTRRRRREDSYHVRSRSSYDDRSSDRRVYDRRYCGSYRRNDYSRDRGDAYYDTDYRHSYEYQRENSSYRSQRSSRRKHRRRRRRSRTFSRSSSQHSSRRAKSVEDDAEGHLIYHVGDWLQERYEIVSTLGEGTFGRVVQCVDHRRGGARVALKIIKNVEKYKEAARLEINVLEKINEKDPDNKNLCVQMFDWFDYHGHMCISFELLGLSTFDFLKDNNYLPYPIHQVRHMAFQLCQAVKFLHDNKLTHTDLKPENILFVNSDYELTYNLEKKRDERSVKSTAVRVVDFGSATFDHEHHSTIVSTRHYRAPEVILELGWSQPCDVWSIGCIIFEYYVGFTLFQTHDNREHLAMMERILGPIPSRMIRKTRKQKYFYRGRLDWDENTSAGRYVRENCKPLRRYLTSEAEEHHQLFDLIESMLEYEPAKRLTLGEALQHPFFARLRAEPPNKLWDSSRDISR
Sequence of full-length kinase/Nluc fusion proteins (Homo sapiens, UniProt P41240) (P41240 whole entry, the tested form may be a part): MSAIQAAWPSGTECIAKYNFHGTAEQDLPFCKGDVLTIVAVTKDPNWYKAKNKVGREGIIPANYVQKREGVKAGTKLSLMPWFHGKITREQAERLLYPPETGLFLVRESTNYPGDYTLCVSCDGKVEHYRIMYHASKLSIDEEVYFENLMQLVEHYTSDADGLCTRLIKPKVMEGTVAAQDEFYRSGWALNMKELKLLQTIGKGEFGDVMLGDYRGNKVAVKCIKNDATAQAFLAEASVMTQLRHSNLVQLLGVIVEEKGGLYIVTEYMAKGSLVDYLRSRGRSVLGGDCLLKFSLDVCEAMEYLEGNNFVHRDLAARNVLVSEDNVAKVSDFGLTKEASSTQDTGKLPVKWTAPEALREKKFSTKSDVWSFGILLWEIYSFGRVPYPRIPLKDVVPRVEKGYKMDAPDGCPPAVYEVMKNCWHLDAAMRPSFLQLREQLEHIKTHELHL

Cc1nc(Nc2ncc(C(=O)Nc3c(C)cccc3Cl)s2)cc(N2CCN(CCOCCNC(=O)CCc3ccc4n3[B-](F)(F)[N+]3=C(c5ccc[nH]5)C=CC3=C4)CC2)n1 [Energy Transfer Probe 6, 2-((6-(4-(2-(2-aminoethoxy)ethyl)piperazin-1-yl)-2-methylpyrimidin-4-yl)amino)-N-(2-chloro-6-methylphenyl)thiazole-5-carboxamide-NanoBRET 590]
EC50 [1]: 80 nM | EC50 [2]: 500 nM | EC50 [3]: 100 nM | EC50 [4]: > 1000 nM | EC50 [5]: 40 nM | EC50 [6]: 200 nM | EC50 [7]: > 1000 nM | EC50 [8]: 10 nM | EC50 [9]: 20 nM

CNC(=O)c1ccccc1Nc1nc(Nc2ccc(N3CCN(C(=O)CCOCCOCCOCCOCCNC(=O)CCc4ccc5n4[B-](F)(F)[N+]4=C(c6ccc[nH]6)C=CC4=C5)CC3)cc2)ncc1Cl [Energy Transfer Probe 5, 2-((2-((4-(4-(1-amino-3,6,9,12-tetraoxapentadecan-15-oyl)piperazin-1-yl)phenyl)amino)-5-chloropyrimidin-4-yl)amino)-N-methylbenzamide-NanoBRET 590]
EC50 [10]: 100 nM | EC50 [11]: > 1000 nM | EC50 [12]: > 1000 nM | EC50 [13]: > 1000 nM | EC50 [14]: 300 nM | EC50 [15]: 200 nM | EC50 [16]: > 1000 nM

C[C@@H](Oc1cc(-c2cnn(C3CCNCC3)c2)cnc1N)c1c(Cl)ccc(F)c1Cl [Crizotinib]
IC50 [17]: […] | IC50 [18]: […] | IC50 [19]: […] | IC50 [20]: […] | IC50 [21]: […] | IC50 [22]: […] | Occupancy, % Replicate 1 [23]: No Binding | Occupancy, % Replicate 2 [23]: No Binding | Occupancy, % Replicate 1 [24]: No Binding | Occupancy, % Replicate 2 [24]: No Binding | Occupancy, % Replicate 1 ([25]; replicate 1): No Binding | Occupancy, % Replicate 2 ([25]; replicate 2): No Binding | receptor occupancy ([26]; read-out: Occupancy, % Replicate 1): […] | receptor occupancy ([26]; read-out: Occupancy, % Replicate 2): […] | Occupancy, % Replicate 1 [27]: No Binding | Occupancy, % Replicate 2 [27]: No Binding | Occupancy, % Replicate 2 [28]: No Binding | IC50 [29]: […] | IC50 [30]: […]
